According to US11618747B2, “LXR modulators with bicyclic core moiety” (OrsoBio, Inc., priority 2018, dated 2023):
pEC50: −log10 of the molar value.

Legend:
[1] = target: T1, full length (FL) LXRα (Homo sapiens, UniProt Q13133); assay: LXR Gal4 reporter transient transfection assay (FL-M2H Gal4α); format: cell-based; settings: HEK293 cells, full length LXRα; read-out: FL-M2H Gal4α (EC50 range)
T1 construct: the full length (FL) proteins of LXRα (amino acids 1-447); NP005684; expressed in transfected cells; host or cells: HEK293
T1 sequence (Q13133 1-447): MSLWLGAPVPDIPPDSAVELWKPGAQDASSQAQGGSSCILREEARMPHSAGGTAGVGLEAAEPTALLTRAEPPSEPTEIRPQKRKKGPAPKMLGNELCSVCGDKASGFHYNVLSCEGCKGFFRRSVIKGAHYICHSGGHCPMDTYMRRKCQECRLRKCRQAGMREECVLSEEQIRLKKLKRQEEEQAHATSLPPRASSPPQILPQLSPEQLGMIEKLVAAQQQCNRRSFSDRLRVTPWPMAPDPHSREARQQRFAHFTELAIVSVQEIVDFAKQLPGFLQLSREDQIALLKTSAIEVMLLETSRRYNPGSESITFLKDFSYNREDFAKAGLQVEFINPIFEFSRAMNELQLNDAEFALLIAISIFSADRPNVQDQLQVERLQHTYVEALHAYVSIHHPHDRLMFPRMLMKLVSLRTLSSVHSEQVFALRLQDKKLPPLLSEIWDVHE
Procedure, shortened: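 Luminescence readout: Firefly luciferase driven by GAL4 response elements reports LXR–cofactor interaction, normalised against cotransfected Renilla luciferase. The system used HEK293 cells expressing LXR full length or ligand-binding domain fused to the NFkB activation domain, with SRC1 or NCoR domains on GAL4 DBD; compound exposure was 16 h.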

[2] = Short term HFD mouse model: plasma and liver exposure; format: in vivo, mice (C57BL/6J); settings: HFD mice, three oral doses of 10 mg/kg, 4 h after last dose
Experimental: Short Term HFD Mouse Model:
The in vivo transcriptional regulation of several LXR target genes by LXR modulators was assessed in mice.
For this, C57BL/6J were purchased from Elevage Janvier (Rennes, France) at the age of 8 weeks. After an acclimation period of two weeks, animals were preferred on a high fat diet (HFD) (Ssniff Spezialdiäten GmbH, Germany, Surwit EF D12330 mod, Cat. No. E15771-34), with 60 kcal % from fat plus 1% (w/w) extra cholesterol (Sigma-Aldrich, St. Louis, Mo.) for 5 days. Animals were maintained on this diet during treatment with LXR modulators. The test compounds were formulated in 0.5% hydroxypropylmethylcellulose (HPMC) and administered in three doses (from 1.5 to 20 mg/kg each) by oral gavage according to the following schedule: on day one, animals received treatment in the morning and the evening (ca. 17:00), on day two animals received the final treatment in the morning after a 4 h fast and were sacrificed 4 h thereafter. Animal work was conducted according to the national guidelines for animal care in Germany.
Upon termination, liver was collected, dipped in ice cold PBS for 30 seconds and cut into appropriate pieces. Pieces were snap frozen in liquid nitrogen and stored at −80° C. For the clinical chemistry analysis from plasma, alanine aminotransferase (ALT, IU/mL), cholesterol (CHOL, mg/dL) and triglycerides (TG, mg/dL) were determined using a fully-automated bench top analyzer (Respons®910, DiaSys Greiner GmbH, Flacht, Germany) with system kits provided by the manufacturer.

## N#Cc1cccc(C#N)c1-c1c(-c2cccc(-c3ccc(C(=O)NCCS(=O)(=O)O)cc3Cl)c2)n(S(=O)(=O)c2ccc(C(F)F)cc2)c2ccc(F)cc12 [10/1]
[1]
  pEC50: > 7.00
[2]
  liver exposure 4 h: B (300 nM to ≤1 μM)
  liver/plasma ratio 4 h: C (30 to ≤100)
  plasma exposure 4 h: D (D: <100 nM)
